In US5681833A, “Benzodiazepine derivatives” (Merck, Sharp & Dohme Ltd., priority 1992, dated 1997):
Where two headings read alike, the source gives them in different places.

Columns and labels:
[1] = target: T1, CCK receptor (pancreas) (Rattus norvegicus, UniProt P30551); experiment: CCK Receptor Binding (Pancreas), inhibition of specific 125I-CCK-8 binding; parameters: species or system rat (male Sprague-Dawley)
T1 construct: The whole pancreas was dissected free of fat tissue and was homogenized; from tissue; host or cells: whole pancreas of male Sprague-Dawley rats, homogenate membranes
T1 sequence (P30551 1-444): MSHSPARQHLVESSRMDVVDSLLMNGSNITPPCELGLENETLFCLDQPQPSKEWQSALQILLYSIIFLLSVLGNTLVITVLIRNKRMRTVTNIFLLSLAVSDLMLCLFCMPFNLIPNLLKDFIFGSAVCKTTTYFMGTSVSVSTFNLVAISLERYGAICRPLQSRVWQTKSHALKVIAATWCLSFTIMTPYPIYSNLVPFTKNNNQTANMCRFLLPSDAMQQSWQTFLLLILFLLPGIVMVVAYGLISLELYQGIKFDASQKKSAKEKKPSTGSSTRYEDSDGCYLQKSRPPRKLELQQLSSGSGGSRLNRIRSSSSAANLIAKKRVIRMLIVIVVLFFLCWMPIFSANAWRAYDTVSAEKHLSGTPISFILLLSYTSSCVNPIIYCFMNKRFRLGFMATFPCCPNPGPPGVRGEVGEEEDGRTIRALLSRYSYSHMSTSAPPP
Description: 1. CCK Receptor Binding (Pancreas)
CCK-8 sulphated was radiolabelled with ^125 I-Bolton Hunter reagent (2000 Ci/mmole). Receptor binding was performed according to Chang and Lotti (Proc. Natl. Acad. Sci. 83, 4923-4926, 1986) with minor modifications.
Male Sprague-Dawley rats (150-200 g) were sacrificed by decapitation. The whole pancreas was dissected free of fat tissue and was homogenized in 25 volumes of ice-cold 10 mM N-2-hydroxyethyl-piperazine-N'-2-ethane sulphonic acid (HEPES) buffer with 0.1% soya bean trypsin inhibitor (pH 7.4 at 25° C.) with a Kinematica Polytron. The homogenates were centrifuged at 47,800 g for 10 min. Pellets were resuspended in 10 volumes of binding assay buffer (20 mM (HEPES)), 1 mM ethylene glycol-bis-(β-aminoethylether-N,N'-tetraacetic acid) (EGTA), 5 mM MgCl2, 150 mM NaCl, bacitracin 0.25 mg/ml, soya bean trypsin inhibitor 0.1 mg/ml, and bovine serum albumin 2 mg/ml pH 6.5 at 25° C.) using a Teflon (trademark) homogenizer, 15 strokes at 500 rpm. The homogenate was further diluted in binding assay buffer to give a final concentration of 0.5 mg original wet weight/1 ml buffer. […] All assays were run in duplicate. The reaction mixtures were incubated at 25° C. for 2 hours and the reaction terminated by rapid filtration (Brandell 24 well cell harvester) over Whatman GF/C filters, washing 3×4 mls with ice-cold 100 Mm NaCl. The radioactivity on the filters was counted with a LKB gamma counter.

[2] = target: T2, CCK receptor (brain) (Cavia porcellus, UniProt H0VZC5); experiment: CCK Receptor Binding (Brain), inhibition of specific 125I-CCK-8 binding; parameters: species or system guinea pig (male Hartley)
T2 construct: the cortex was removed and homogenized in 25 mL ice-cold 0.32M sucrose; from tissue; host or cells: cortex of male Hartley guinea pigs, P2 membranes
T2 sequence (H0VZC5 1-426): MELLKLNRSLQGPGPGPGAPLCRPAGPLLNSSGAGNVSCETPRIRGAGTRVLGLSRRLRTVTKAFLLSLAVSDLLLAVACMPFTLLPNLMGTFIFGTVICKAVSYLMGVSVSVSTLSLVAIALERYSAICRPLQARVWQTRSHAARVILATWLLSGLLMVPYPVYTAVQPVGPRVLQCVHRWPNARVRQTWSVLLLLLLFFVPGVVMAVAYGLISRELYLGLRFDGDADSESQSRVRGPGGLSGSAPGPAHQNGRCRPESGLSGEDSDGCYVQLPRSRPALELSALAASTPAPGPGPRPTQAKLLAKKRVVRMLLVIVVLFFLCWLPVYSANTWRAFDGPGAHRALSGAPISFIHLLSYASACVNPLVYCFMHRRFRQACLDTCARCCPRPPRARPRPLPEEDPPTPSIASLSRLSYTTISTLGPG
Description: 2. CCK Receptor Binding (Brain)
CCK-8 sulphated was radiolabelled and the binding was performed according to the description for the pancreas method with minor modifications.
Male Hartley guinea pigs (300-500 g) were sacrificed by decapitation and the cortex was removed and homogenized in 25 mL ice-cold 0.32M sucrose. The homogenates were centrifuged at 1000 g for 10 minutes and the resulting supernatant was recentrifuged at 20,000 g for 20 minutes. The P2 pellet was resuspended in binding assay buffer (20mM HEPES, 5 mM MgCl2, 0.25 mg/ml bacitracin, 1 mM EGTA pH 6.5 at 25° C.), using a Teflon (trademark) homogenizer (5 strokes at 500 rpm) to give a final concentration of 10 mg original wet weight/1.2 ml buffer. […] All assays were run in duplicate. The reaction mixtures were incubated at 25° C. for 2 hours and then the reaction was terminated by rapid filtration (Brandell 24 well cell harvester) on Whatman GF/C filters with 3×5 ml washes of cold 100 mM NaCl. The radioactivity on the filters was counted with a LKB gamma counter.

[3] = rat pancreas membranes, 50 pM 125I-CCK-8, 25° C., 2 hours, pH 6.5, read-out: IC50 125I-CCK Pancreas
[4] = guinea pig cortex membranes, 50 pM 125I-CCK-8, 25° C., 2 hours, pH 6.5, read-out: IC50 125I-CCK Brain

Row | IC50 [1, 3] [nM] | IC50 [2, 4] [nM] | Compound | IC50 [1] [nM] | IC50 [2] [nM]
1 | 9.5 | 0.82 | CN1C(=O)C(NC(=O)Nc2cccc(CNc3nnn[nH]3)c2)N=C(C2CCCCC2)c2ccccc21 (racemic) [Example 1, N-[3(R,S)-5-Cyclohexyl-2,3-dihydro-1-methyl-2-oxo-1H-1,4-benzodiazepin-3-yl]-N'-[3-{(tetrazol-5-yl)aminomethyl}phenyl]urea] | – | –
2 | 6.5 | 0.31 | CN1C(=O)C(NC(=O)Nc2cccc(Nc3nnn[nH]3)c2)N=C(C2CCCCC2)c2ccccc21 (racemic) [Example 2, N-[3(R,S)-5-Cyclohexyl-2,3-dihydro-1-methyl-2-oxo-1H-1,4-benzodiazepin-3-yl]-N'-[3-{(tetrazol-5-yl)amino}phenyl]urea] | – | –
3 | 109 | 14 | CCCN1C(=O)C(NC(=O)Nc2cccc(CNc3ncc[nH]3)c2)N=C(C2CCCCC2)c2ccccc21 (racemic) [Example 18, N-[3(R,S)-5-Cyclohexyl-2,3-dihydro-2-oxo-1-propyl-1H-1,4-benzodiazepin-3-yl]N'-[3-[(1H-imidazol-2-ylamino)methyl]phenyl]urea] | – | –
4 | 1.33 | 82.9 | CCCN1C(=O)C(NC(=O)Nc2cccc(Nc3ncc[nH]3)c2)N=C(C2CCCCC2)c2ccccc21 (racemic) [Example 19, N-[3(R,S)-5-Cyclohexyl-2,3-dihydro-2-oxo-1-propyl-1H-1,4-benzodiazepin-3-yl]N'-[3-[(1H-imidazol-2-yl)amino]phenyl]urea] | – | –
5 | 84.5 | 33.9 | CN1C(=O)C(NC(=O)Nc2cccc(CNc3ncc[nH]3)c2)N=C(C2CCCCCC2)c2ccccc21 (racemic) [Example 20, N-[3(R,S)-5-Cycloheptyl-2,3-dihydro-1-methyl-2-oxo-1H -1,4-benzodiazepin-3-yl]N'-[3-[(1H-imidazol-2-ylamino)methyl]phenyl]urea] | – | –
6 | 400 | 0.1 | CN1C(=O)[C@H](NC(=O)Nc2cccc(N(C)c3nnn[nH]3)c2)N=C(C2CCCCC2)c2ccccc21 [Example 4, (+)-N-[3(R)-5-Cyclohexyl-2,3-dihydro-1-methyl-2-oxo-1H-1,4-benzodiazepin-3-yl]-N'-[3-{N-methyl-N-(tetrazol-5-yl)amino}phenyl]urea] | – | –
7 | 200 | 0.7 | CN1C(=O)[C@H](NC(=O)Nc2cccc(Nc3nnn[nH]3)c2)N=C(C2CCCCC2)c2ccccc21 [Example 5, (+)-N-[3(R)-5-Cyclohexyl-2,3-dihydro-1-methyl-2-oxo-1H-1,4-benzodiazepin-3-yl]-N'-[3-{(tetrazol-5-yl)amino}phenyl]urea] | – | –
8 | 153 | 0.284 | CN1C(=O)[C@H](NC(=O)Nc2cccc(CNc3nnn[nH]3)c2)N=C(C2CCCCC2)c2ccccc21 [Example 6, (+)-N-[3(R)-5-Cyclohexyl-2,3-dihydro-1-methyl-2-oxo-1H-1,4-benzodiazepin-3-yl]-N'-[3-{(tetrazol-5-yl)aminomethyl}phenyl]urea] | – | –

Further lines, the compound ahead of its results:

Row | Compound | IC50 [1, 3] [nM] | IC50 [2, 4] [nM] | IC50 [1] [nM] | IC50 [2] [nM]
9 | CN1C(=O)C(NC(=O)Nc2cccc(N(C)c3nnn[nH]3)c2)N=C(C2CCCCC2)c2ccccc21 (racemic) [Example 3, N-[3(R,S)-5-Cyclohexyl-2,3-dihydro-1-methyl-2-oxo-1H-1,4-benzodiazepin-3-yl]-N'-[3-{N-methyl-N-(tetrazol-5-yl)amino}phenyl]urea] | 10 | 0.11 | – | –
10 | CN1C(=O)C(C)(NC(=O)Nc2cccc(CNc3nnn[nH]3)c2)N=C(c2ccccc2)c2ccccc21 (racemic) [Example 15, N-[3-(R,S)-2,3-Dihydro-1,3-dimethyl-2-oxo-5-phenyl-1H-1,4-benzodiazepin-3-yl]-N'-[3-{(tetrazol-5-yl)aminomethyl}phenyl]urea] | – | 1300 | 42.8 | –
11 | Cc1ccc(NC(=O)NC2N=C(c3ccccc3)c3ccccc3N(C(C)(C)C)C2=O)cc1Nc1nnn[nH]1 (racemic) [Example 16, N-[3(R,S)-1-tert-Butyl-2,3-dihydro-2-oxo-5-phenyl-1H-1,4-benzodiazepin-3-yl]-N'-[4-methyl-3-{(tetrazol-5-yl)amino}phenyl]urea] | – | 497 | 3610 | –
12 | CCCN1C(=O)C(NC(=O)Nc2cccc(N(C)c3nnn[nH]3)c2)N=C(N2CCN(C)CC2)c2ccccc21 (single isomer, unassigned; (-)) [Example 17, (-)-N-[2,3-Dihydro-5-(4-methylpiperazin-1-yl)-2-oxo-1-propyl-1H-1,4-benzodiazepin-3-yl]-N'-[3-{N-methyl-N-(tetrazol-5-yl)amino}phenyl]urea] | > 3000 | 0.93 | – | –
13 | CN1C(=O)[C@H](NC(=O)Nc2cccc(N(C)c3nn[nH]n3)c2)N=C(c2ccccc2)c2ccccc21 [Example 7, (+)-N-[3(R)-2,3-Dihydro-1-methyl-2-oxo-5-phenyl-1H-1,4-benzodiazepin-3-yl]-N'-[3-{N-methyl-N-(tetrazol-5-yl)amino}phenyl]urea] | – | – | > 3000 | 0.575
14 | CN1C(=O)[C@H](NC(=O)Nc2cccc(Nc3nn[nH]n3)c2)N=C(c2ccccc2)c2ccccc21 [Example 8, (+)-N-[3(R)-2,3-Dihydro-1-methyl-2-oxo-5-phenyl-1H-1,4-benzodiazepin-3-yl]-N'-[3-{(tetrazol-5-yl)amino}phenyl]urea] | – | – | > 3000 | 5.7
15 | CN1C(=O)[C@H](NC(=O)Nc2cccc(CNc3nn[nH]n3)c2)N=C(c2ccccc2)c2ccccc21 [Example 9, (+)-N-[3(R)-2,3-Dihydro-1-methyl-2-oxo-5-phenyl-1H-1,4-benzodiazepin-3-yl]-N'-[3-{(tetrazol-5-yl)aminomethyl}phenyl]urea] | – | – | > 3000 | 7.4
16 | Cc1ccc(NC(=O)N[C@@H]2N=C(C3CCCCC3)c3ccccc3N(C)C2=O)cc1Nc1nnn[nH]1 [Example 10, (+)-N-[3(R)-5-Cyclohexyl-2,3-dihydro-1-methyl-2-oxo-1H-1,4-benzodiazepin-3-yl]-N'-[4-methyl-3-{(tetrazol-5-yl)amino}phenyl]urea] | 802 | 0.042 | – | –
17 | Cc1ccc(NC(=O)N[C@@H]2N=C(C3CCCCC3)c3ccccc3N(C)C2=O)cc1N(C)c1nn[nH]n1 [Example 11, (+)-N-[3(R)-5-Cyclohexyl-2,3-dihydro-1-methyl-2-oxo-1H-1,4-benzodiazepin-3-yl]-N'-[4-methyl-3-{N-methyl-N-(tetrazol-5-yl)amino}phenyl]urea] | 600 | – | – | –
18 | CN1C(=O)[C@H](NC(=O)Nc2ccc3c(c2)N(c2nn[nH]n2)CC3)N=C(c2ccccc2)c2ccccc21 [Example 14, (+)-N-[3(R)-2,3-Dihydro-1-methyl-2-oxo-5-phenyl-1H-1,4-benzodiazepin-3-yl]-N'-[1-(tetrazol-5yl)indolin-6-yl]urea] | – | – | – | 0.11
